From patent publication US20230081390A1, “INHIBITORS OF RAF KINASES” (Kinnate Biopharma Inc., priority 2019, published 2023)

molecular target: human RAF1 (Homo sapiens, UniProt P04049); experiment: Protein kinase assay (33P-ATP filter binding), human RAF1, 10-dose IC50; type: biochemical; conditions: MEK1 (K97R) substrate 3 micromolar, ATP 10 micromolar, read-out: RAF-1 IC50
Method in brief: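 Human RAF1 phosphorylated human MEK1 (K97R) substrate at 3 µM with 10 µM ATP (³³P), in pH 7.5 HEPES buffer with MgCl2, EGTA, Brij35, BSA, Na3VO4 and DTT. Reactions ran for 2 hr at room temperature with P81 filter capture.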

Chain of human RAF1 (P04049 whole entry): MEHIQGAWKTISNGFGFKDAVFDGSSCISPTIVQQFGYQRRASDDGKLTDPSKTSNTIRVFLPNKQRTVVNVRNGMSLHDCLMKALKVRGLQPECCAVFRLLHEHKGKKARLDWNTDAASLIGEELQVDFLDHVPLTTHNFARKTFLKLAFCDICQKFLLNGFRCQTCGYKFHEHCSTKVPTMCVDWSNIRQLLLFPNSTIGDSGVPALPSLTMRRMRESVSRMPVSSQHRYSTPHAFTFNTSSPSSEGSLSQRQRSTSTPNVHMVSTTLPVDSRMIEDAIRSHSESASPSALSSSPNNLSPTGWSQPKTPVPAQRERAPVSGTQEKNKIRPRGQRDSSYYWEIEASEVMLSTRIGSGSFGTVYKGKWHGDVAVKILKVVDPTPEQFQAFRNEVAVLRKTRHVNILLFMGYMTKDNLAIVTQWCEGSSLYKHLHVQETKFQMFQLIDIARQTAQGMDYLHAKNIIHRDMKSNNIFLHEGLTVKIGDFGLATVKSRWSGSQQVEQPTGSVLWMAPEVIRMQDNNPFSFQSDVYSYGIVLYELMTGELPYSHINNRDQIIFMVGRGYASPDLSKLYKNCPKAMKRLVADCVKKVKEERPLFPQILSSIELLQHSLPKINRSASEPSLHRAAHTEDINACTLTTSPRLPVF

Row | IC50 [nM] | SMILES
1 | < 10 | Cc1cc(F)c(NC(=O)N2CC[C@@H](OC(F)(F)F)C2)cc1-c1cnc(OC2CCOCC2)c(N2CCOCC2)c1 [Example 126, (3R)-N-[2-fluoro-4-methyl-5-[5-(morpholin-4-yl)-6-(oxan-4-yloxy)pyridin-3-yl]phenyl]-3-(trifluoromethoxy)pyrrolidine-1-carboxamide]
2 | < 10 | Cc1cc(F)c(NC(=O)N2CC[C@H](OC(F)(F)F)C2)cc1-c1cnc(OC2CCOCC2)c(N2CCOCC2)c1 [Example 127, (3S)-N-[2-fluoro-4-methyl-5-[5-(morpholin-4-yl)-6-(oxan-4-yloxy)pyridin-3-yl]phenyl]-3-(trifluoromethoxy)pyrrolidine-1-carboxamide]
3 | < 10 | Cc1ccc(NC(=O)N2CC[C@@H](OC(F)(F)F)C2)cc1-c1cnc(OC2CCOCC2)c(N2CCOCC2)c1 [Example 128, (3R)-N-[4-methyl-3-[5-(morpholin-4-yl)-6-(oxan-4-yloxy)pyridin-3-yl]phenyl]-3-(trifluoromethoxy)pyrrolidine-1-carboxamide]
4 | < 10 | Cc1ccc(NC(=O)N2CC[C@H](OC(F)(F)F)C2)cc1-c1cnc(OC2CCOCC2)c(N2CCOCC2)c1 [Example 129, (3S)-N-[4-methyl-3-[5-(morpholin-4-yl)-6-(oxan-4-yloxy)pyridin-3-yl]phenyl]-3-(trifluoromethoxy)pyrrolidine-1-carboxamide]
5 | < 10 | Cc1ccc(NC(=O)Nc2cnn(C(F)(F)F)c2)cc1-c1cnc(OC2CCOCC2)c(N2CCOCC2)c1 [Example 130, 1-[4-methyl-3-[5-(morpholin-4-yl)-6-(oxan-4-yloxy)pyridin-3-yl]phenyl]-3-[1-(trifluoromethyl)pyrazol-4-yl]urea]
6 | < 10 | Cc1ccc(NC(=O)N2CC[C@@H](SC(F)(F)F)C2)cc1-c1cnc(OC2CCOCC2)c(N2CCOCC2)c1 [Example 131, (3R)-N-[4-methyl-3-[5-(morpholin-4-yl)-6-(oxan-4-yloxy)pyridin-3-yl]phenyl]-3-[(trifluoromethyl)sulfanyl]pyrrolidine-1-carboxamide]
7 | < 10 | Cc1ccc(NC(=O)N2CC[C@H](SC(F)(F)F)C2)cc1-c1cnc(OC2CCOCC2)c(N2CCOCC2)c1 [Example 132, (3S)-N-[4-methyl-3-[5-(morpholin-4-yl)-6-(oxan-4-yloxy)pyridin-3-yl]phenyl]-3-[(trifluoromethyl)sulfanyl]pyrrolidine-1-carboxamide]
8 | < 10 | Cc1ccc(NC(=O)N2CC[C@@H](OCC(F)(F)F)C2)cc1-c1cc(OCCO)nc(N2CCOCC2)c1 [Example 133, (3R)-N-[3-[2-(2-hydroxyethoxy)-6-(morpholin-4-yl)pyridin-4-yl]-4-methylphenyl]-3-(2,2,2-trifluoroethoxy)pyrrolidine-1-carboxamide]
9 | < 10 | Cc1ccc(NC(=O)N2CCC(S(=O)(=O)C(F)(F)F)C2)cc1-c1cc(OCCO)nc(N2CCOCC2)c1 (centres unmarked) [Example 134, N-[3-[2-(2-hydroxyethoxy)-6-(morpholin-4-yl)pyridin-4-yl]-4-methylphenyl]-3-trifluoromethanesulfonylpyrrolidine-1-carboxamide]
10 | < 10 | Cc1ccc(NC(=O)Nc2cnn(CC(F)(F)F)c2)cc1-c1cc(OCCO)nc(N2CCOCC2)c1 [Example 135, 1-[3-[2-(2-hydroxyethoxy)-6-(morpholin-4-yl)pyridin-4-yl]-4-methylphenyl]-3-[1-(2,2,2-trifluoroethyl)pyrazol-4-yl]urea]
11 | < 10 | Cc1ccc(NC(=O)N2CC/C(=C\C(F)(F)F)C2)cc1-c1cc(OCCO)nc(N2CCOCC2)c1 [Example 136, (3E)-N-[3-[2-(2-hydroxyethoxy)-6-(morpholin-4-yl)pyridin-4-yl]-4-methylphenyl]-3-(2,2,2-trifluoroethylidene)pyrrolidine-1-carboxamide]
12 | < 10 | Cc1ccc(NC(=O)N2CC[C@H](OCC(F)(F)F)C2)cc1-c1cc(OCCO)nc(N2CCOCC2)c1 [Example 137, (3S)-N-[3-[2-(2-hydroxyethoxy)-6-(morpholin-4-yl)pyridin-4-yl]-4-methylphenyl]-3-(2,2,2-trifluoroethoxy)pyrrolidine-1-carboxamide]
13 | < 10 | Cc1ccc(NC(=O)N2CC[C@H](OC(C)C)C2)cc1-c1cc(OCCO)nc(N2CCOCC2)c1 [Example 138, (3S)-N-[3-[2-(2-hydroxyethoxy)-6-(morpholin-4-yl)pyridin-4-yl]-4-methylphenyl]-3-isopropoxypyrrolidine-1-carboxamide]
14 | < 10 | Cc1ccc(NC(=O)Nc2cnn(C(C)C)c2)cc1-c1cc(OCCO)nc(N2CCOCC2)c1 [Example 139, 1-[3-[2-(2-hydroxyethoxy)-6-(morpholin-4-yl)pyridin-4-yl]-4-methylphenyl]-3-(1-isopropylpyrazol-4-yl)urea]
15 | < 10 | Cc1ccc(NC(=O)N2CC[C@H](OC(C)(F)F)C2)cc1-c1cc(OCCO)nc(N2CCOCC2)c1 [Example 140, (3S)-3-(1,1-difluoroethoxy)-N-[3-[2-(2-hydroxyethoxy)-6-(morpholin-4-yl)pyridin-4-yl]-4-methylphenyl]pyrrolidine-1-carboxamide]
16 | < 10 | Cc1ccc(NC(=O)N(C)c2cnn(C(F)(F)F)c2)cc1-c1cc(OCCO)nc(N2CCOCC2)c1 [Example 141, 1-[3-[2-(2-hydroxyethoxy)-6-(morpholin-4-yl)pyridin-4-yl]-4-methylphenyl]-3-methyl-3-[1-(trifluoromethyl)pyrazol-4-yl]urea]
17 | < 10 | Cc1ccc(NC(=O)N2CC[C@H](OC(F)(F)F)C2)cc1-c1cc(OC[C@H](O)CO)nc(N2CCOCC2)c1 [Example 142, (3S)-N-(3-[2-[(2R)-2,3-dihydroxypropoxy]-6-(morpholin-4-yl)pyridin-4-yl]-4-methylphenyl)-3-(trifluoromethoxy)pyrrolidine-1-carboxamide]
18 | < 10 | Cc1ccc(NC(=O)N2CC[C@H](OC(F)(F)F)C2)cc1-c1cc(OC[C@@H](O)CO)nc(N2CCOCC2)c1 [Example 143, (3S)-N-(3-[2-[(2S)-2,3-dihydroxypropoxy]-6-(morpholin-4-yl)pyridin-4-yl]-4-methylphenyl)-3-(trifluoromethoxy)pyrrolidine-1-carboxamide]
19 | < 10 | Cc1ccc(NC(=O)N2C[C@@H](OC(F)(F)F)CO2)cc1-c1cc(OCCO)nc(N2CCOCC2)c1 [Example 144, (4R)-N-[3-[2-(2-hydroxyethoxy)-6-(morpholin-4-yl)pyridin-4-yl]-4-methylphenyl]-4-(trifluoromethoxy)-1,2-oxazolidine-2-carboxamide]
20 | < 10 | Cc1ccc(NC(=O)N2CCC(=C3CC3)C2)cc1-c1cc(OCCO)nc(N2CCOCC2)c1 [Example 145, 3-cyclopropylidene-N-[3-[2-(2-hydroxyethoxy)-6-(morpholin-4-yl)pyridin-4-yl]-4-methylphenyl]pyrrolidine-1-carboxamide]
21 | < 10 | Cc1ccc(NC(=O)N2CC(OC(F)(F)F)CN2)cc1-c1cc(OCCO)nc(N2CCOCC2)c1 (centres unmarked) [Example 146, N-[3-[2-(2-hydroxyethoxy)-6-(morpholin-4-yl)pyridin-4-yl]-4-methylphenyl]-4-(trifluoromethoxy) pyrazolidine-1-carboxamide]
22 | 1000 to 10000 | Cc1ccc(NC(=O)n2ccc(C(=O)C(F)(F)F)c2)cc1-c1cc(OCCO)nc(N2CCOCC2)c1 [Example 147, N-[3-[2-(2-hydroxyethoxy)-6-(morpholin-4-yl)pyridin-4-yl]-4-methylphenyl]-3-(2,2,2-trifluoroacetyl)pyrrole-1-carboxamide]
23 | < 10 | Cc1ccc(NC(=O)N2CC(O)C(CC(F)(F)F)C2)cc1-c1cc(OCCO)nc(N2CCOCC2)c1 (centres unmarked) [Example 148, 3-hydroxy-N-[3-[2-(2-hydroxyethoxy)-6-(morpholin-4-yl)pyridin-4-yl]-4-methylphenyl]-4-(2,2,2-trifluoroethyl)pyrrolidine-1-carboxamide]
24 | < 10 | Cc1ccc(NC(=O)N2CC[C@@H](OC(F)(F)F)C2)cc1-c1cc(OCC(C)(C)O)nc(N2CCOCC2)c1 [Example 149, (3R)-N-[3-[2-(2-hydroxy-2-methylpropoxy)-6-(morpholin-4-yl)pyridin-4-yl]-4-methylphenyl]-3-(trifluoromethoxy)pyrrolidine-1-carboxamide]
25 | < 10 | Cc1ccc(NC(=O)N2CC[C@H](OC(F)(F)F)C2)cc1-c1cc(OC[C@H](C)O)nc(N2CCOCC2)c1 [Example 150, (3S)-N-(3-[2-[(2S)-2-hydroxypropoxy]-6-(morpholin-4-yl)pyridin-4-yl]-4-methylphenyl)-3-(trifluoromethoxy)pyrrolidine-- carboxamide]
26 | < 10 | Cc1ccc(NC(=O)N2CC[C@H](OC(F)(F)F)C2)cc1-c1cc(O[C@@H](C)CO)nc(N2CCOCC2)c1 [Example 151, (3S)-N-[3-(2-[[(2S)-1-hydroxypropan-2-yl]oxy]-6-(morpholin-4-yl)pyridin-4-yl)-4-methylphenyl]-3-(trifluoromethoxy)pyrrolidine-1-carboxamide]
27 | < 10 | Cc1ccc(NC(=O)N2CC[C@H](OC(F)(F)F)C2)cc1-c1cc(OCC(C)(C)O)nc(N2CCOCC2)c1 [Example 154, (3S)-N-[3-[2-(2-hydroxy-2-methylpropoxy)-6-(morpholin-4-yl)pyridin-4-yl]-4-methylphenyl]-3-(trifluoromethoxy)pyrrolidine-1-carboxamide]
28 | < 10 | Cc1ccc(NC(=O)N2CC[C@H](OC(F)(F)F)C2)cc1-c1cc(OC[C@@H](C)O)nc(N2CCOCC2)c1 [Example 155, (3S)-N-(3-[2-[(2R)-2-hydroxypropoxy]-6-(morpholin-4-yl)pyridin-4-yl]-4-methylphenyl)-3-(trifluoromethoxy)pyrrolidine-1-carboxamide]
29 | < 10 | Cc1ccc(NC(=O)N(C)c2cnn(C(F)(F)F)c2)cc1-c1cc(OC[C@@H](C)O)nc(N2CCOCC2)c1 [Example 156, 1-(3-[2-[(2R)-2-hydroxypropoxy]-6-(morpholin-4-yl)pyridin-4-yl]-4-methylphenyl)-3-methyl-3-[1-(trifluoromethyl)pyrazol-4-yl]urea]
